{"source": "patent US20020035738A1", "about": "“Plant protection method” (priority 1996, published 2002)", "key": {"[1]": {"system": "pPDF1.2-GUS-tNOS reporter gene", "assay": "β-glucuronidase activity in four-week-old pPDF1.2-GUS-tNOS Arabidopsis plants upon chemical treatment", "type": "in vivo"}, "[2]": {"system": "pBg12-GUS-tNOS (β-1.3-glucanase PR-2 type gene promoter)", "assay": "β-glucuronidase activity in pBg12-GUS-tNOS Arabidopsis plants upon chemical treatment", "type": "in vivo"}, "[3]": {"system": "pPDF1.2-GUS-tNOS transgene", "assay": "β-glucuronidase activity in seedlings of pPDF1.2-GUS-tNOS Arabidopsis lines germinated on jasmonic acid", "type": "in vivo, Arabidopsis thaliana ecotype C24", "conditions": "10 μM jasmonic acid", "source_text": "The β-glucuronidase activity was normalized to the total protein content in each sample, as determined by the method of Bradford (1976) using bovine serum albumin as a […]."}, "[4]": {"system": "plant defensin gene expression (PDF1.2)", "assay": "Induction of plant defensins in Arabidopsis leaves upon chemical treatments (RNA gel blot, ELISA)", "type": "in vivo"}, "tobacco PR-1 gene": {"system": "tobacco PR-1 gene", "assay": "RNA gel blot analysis of tobacco PR-1 gene activation", "type": "in vivo", "conditions": "tobacco plants treated in the same way; not shown"}, "[5]": {"system": "pPDF1.2-GUS-tNOS reporter gene", "assay": "β-glucuronidase activity in pPDF1.2-GUS-tNOS tobacco plants upon chemical treatment", "type": "in vivo, tobacco (cv. Xanthi-nc)", "conditions": "8-week-old tobacco, treated leaves 48 h after treatment; SA S mM, MeJA 50 μM, paraquat 25 μgM"}, "A. brassicicola": {"system": "A. brassicicola", "type": "cell-based, Alternaria brassicicola", "conditions": "FIG. 3D"}, "Alterniaria alternata": {"system": "Alterniaria alternata", "conditions": "cited from earlier work"}, "Botrvtis cinerea": {"system": "Botrvtis cinerea", "conditions": "cited from earlier work"}, "[6]": {"conditions": "treated leaves, 48 hours, JA 500 μM, MeJA 50 μM, SA 5 mM, INA 1 mg/ml, BTH 300 μM, paraquat 25 μM, ethylene 25 ppm"}, "[7]": {"conditions": "treated leaves, 48 h, JA 500 μM, MeJA 50 μM, SA 5 mM, INA 1 mg/ml, BTH 300 μM, paraquat 25 μM, ethylene 25 ppm"}, "[8]": {"conditions": "[…], SA 5 mM, INA 1 mg/mL, paraquat 25 μM, rose bengal 20 mM, methyl jasmonate 45 μM in 0.1% ethanol, ethylene 20 ppm"}}, "data": [{"compound": "CC/C=C\\C[C@H]1C(=O)CC[C@@H]1CC(=O)O", "note": "[jasmonic acid]", "values": [{"measurement": "induction of the pPDF1.2-GUS-tNOS reporter gene (β-glucuronidase activity)", "setting": "[1]; [6]", "result": "induced"}, {"measurement": "β-glucuronidase activity in pBg12-GUS-tNOS plants", "setting": "[2]; [7]", "result": "neither JA, MeJA, ethylene nor paraquat had any effect"}, {"measurement": "increase of β-glucuronidase activity in jasmonate treated versus untreated seedlings", "setting": "[3]; all six lines tested", "result": "9 to 25", "unit": "fold"}, {"measurement": "β-glucuronidase activity, JA-treated", "setting": "[3]; transgenic line 3, 10-day-old seedlings", "result": "2895 pmoles 4-methylumbelliferone r"}, {"measurement": "β-glucuronidase activity, JA-treated", "setting": "[3]; transgenic line 4, 10-day-old seedlings", "result": "978 pmoles 4-methylumbelliferone r"}, {"measurement": "β-glucuronidase activity, JA-treated", "setting": "[3]; transgenic line 5, 10-day-old seedlings", "result": "2676 pmoles 4-methylumbelliferone r"}, {"measurement": "β-glucuronidase activity, JA-treated", "setting": "[3]; transgenic line 6, 10-day-old seedlings", "result": "2166 pmoles 4-methylumbelliferone r"}, {"measurement": "β-glucuronidase activity, JA-treated", "setting": "[3]; transgenic line 7, 10-day-old seedlings", "result": "203 pmoles 4-methylumbelliferone r"}, {"measurement": "β-glucuronidase activity, JA-treated", "setting": "[3]; transgenic line 19, 10-day-old seedlings", "result": "202 pmoles 4-methylumbelliferone r"}]}, {"compound": "CC/C=C\\CC1C(=O)CCC1CC(=O)OC", "note": "(stereo not drawn) [methyl jasmonate]", "values": [{"measurement": "β-glucuronidase activity, single and combined treatments (synergy)", "setting": "[1]; methyl jasmonate 0.5 μM, ethylene 25 ppm, ethephon 333 μM, FIG. 19", "result": "did not cause increased"}, {"measurement": "induction of the pPDF1.2-GUS-tNOS reporter gene (β-glucuronidase activity)", "setting": "[1]; [6]", "result": "induced"}, {"measurement": "β-glucuronidase activity in pBg12-GUS-tNOS plants", "setting": "[2]; [7]", "result": "neither JA, MeJA, ethylene nor paraquat had any effect"}, {"measurement": "plant defensin gene expression (RNA blot analysis, ELISA)", "setting": "[4]; [8]", "result": "significantly increased"}, {"measurement": "PDF1.2 accumulation", "setting": "[4]; sterile plants grown on an agar medium, ethylene alone 25 ppm, results not shown", "result": "still induced PDF1.2 accumulation"}]}, {"compound": "C[n+]1ccc(-c2cc[n+](C)cc2)cc1", "note": "[paraquat]", "values": [{"measurement": "induction of the pPDF1.2-GUS-tNOS reporter gene (β-glucuronidase activity)", "setting": "[1]; [6]", "result": "induced"}, {"measurement": "β-glucuronidase activity in pBg12-GUS-tNOS plants", "setting": "[2]; [7]", "result": "neither JA, MeJA, ethylene nor paraquat had any effect"}, {"measurement": "plant defensin gene expression (RNA blot analysis, ELISA)", "setting": "[4]; [8]", "result": "strongly induced"}]}, {"compound": "O=C(O)c1cc(Cl)nc(Cl)c1", "note": "[INA, 2,6-dichloroisonicotinic acid]", "values": [{"measurement": "induction of the pPDF1.2-GUS-tNOS reporter gene (β-glucuronidase activity)", "setting": "[1]; [6]", "result": "without effect"}, {"measurement": "β-glucuronidase activity in pBg12-GUS-tNOS plants", "setting": "[2]; [7]", "result": "markedly increased"}, {"measurement": "plant defensin gene expression (RNA blot analysis, ELISA)", "setting": "[4]; [8]", "result": "no induction"}]}, {"compound": "O=C(O)c1ccccc1O", "note": "[salicylic acid]", "values": [{"measurement": "induction of the pPDF1.2-GUS-tNOS reporter gene (β-glucuronidase activity)", "setting": "[1]; [6]", "result": "without effect"}, {"measurement": "β-glucuronidase activity in pBg12-GUS-tNOS plants", "setting": "[2]; [7]", "result": "markedly increased"}, {"measurement": "activation of the tobacco PR-1 gene (RNA gel blot)", "setting": "tobacco PR-1 gene", "result": "induced only by salicylic acid"}, {"measurement": "plant defensin gene expression (RNA blot analysis, ELISA)", "setting": "[4]; [8]", "result": "no induction"}, {"measurement": "increase in β-glucuronidase activity", "setting": "[5]", "result": 2, "unit": "fold"}]}, {"compound": "Rs-AFP1: a known radish plant defensin (QKLCERPSGTWSGVCGNNNACKNQCINLEKARHGSCNYVFPAHKCICYFPC; UniProt P69241 30-80, looked up)", "values": [{"measurement": "character of the growth inhibition (hyphal morphology)", "setting": "A. brassicicola", "result": "hyphal hyperbranching and tip swelling"}]}, {"compound": "C=C", "note": "[ethylene]", "values": [{"measurement": "induction of the pPDF1.2-GUS-tNOS reporter gene (β-glucuronidase activity)", "setting": "[1]; in vivo", "result": "without effect"}, {"measurement": "β-glucuronidase activity, single and combined treatments (synergy)", "setting": "[1]; in vivo", "result": "did not cause increased"}, {"measurement": "β-glucuronidase activity in pBg12-GUS-tNOS plants", "setting": "[2]; in vivo", "result": "neither JA, MeJA, ethylene nor paraquat had any effect"}, {"measurement": "PDF1.2 accumulation", "setting": "[4]; in vivo", "result": "no induced PDF1.2 accumulation"}, {"measurement": "plant defensin gene expression (RNA blot analysis, ELISA)", "setting": "[4]; in vivo", "result": "significantly increased"}]}, {"compound": "CSC(=O)c1cccc2nnsc12", "note": "[BTH, 1,2,3-benzothiadiazole-7-carbothioic acid S-methylester]", "values": [{"measurement": "induction of the pPDF1.2-GUS-tNOS reporter gene (β-glucuronidase activity)", "setting": "[1]; [6]", "result": "without effect"}, {"measurement": "β-glucuronidase activity in pBg12-GUS-tNOS plants", "setting": "[2]; [7]", "result": "markedly increased"}, {"measurement": "protection of tobacco plants against infection by Alternaria alternata", "setting": "Alterniaria alternata", "result": "failed to protect"}, {"measurement": "protection of tobacco plants against infection by Botrytis cinerea", "setting": "Botrvtis cinerea", "result": "failed to protect"}]}, {"compound": "O=C([O-])c1c(Cl)c(Cl)c(Cl)c(Cl)c1-c1c2cc(I)c(=O)c(I)c-2oc2c(I)c([O-])c(I)cc12.[Na+].[Na+]", "note": "[rose bengal]", "values": [{"measurement": "plant defensin gene expression (RNA blot analysis, ELISA)", "setting": "[4]; [8]", "result": "strongly induced"}]}]}
